Source: the SangsterLogP compilation

Experiment: method code SF, from PMID: 1610484
Conditions: not given

| SMILES | logP |
| --- | --- |
| CSCCCNC(=O)C(F)(F)Cn1cnc([N+](=O)[O-])n1 | 0.76 |
| CSCCNC(=O)CCn1cnc([N+](=O)[O-])n1 | -0.07 |
| COCCCNC(=O)C(F)(F)Cn1cnc([N+](=O)[O-])n1 | 0.01 |
| CSCCNC(=O)C(F)(F)Cn1cnc([N+](=O)[O-])n1 | 0.4 |
| CSCCCNC(=O)Cn1cnc([N+](=O)[O-])n1 | 0.26 |
| O=C(NCCCO)C(F)(F)Cn1cnc([N+](=O)[O-])n1 | -0.63 |
| CSCCNC(=O)Cn1cnc([N+](=O)[O-])n1 | -0.1 |

The next lines start with the values.

| logP | SMILES |
| --- | --- |
| -0.65 | COCCNC(=O)CCn1cnc([N+](=O)[O-])n1 |
| 0.25 | COCCNC(=S)Cn1cnc([N+](=O)[O-])n1 |
| 0.63 | COCCCNC(=S)Cn1cnc([N+](=O)[O-])n1 |
| -1.37 | O=C(Cn1cnc([N+](=O)[O-])n1)NCCO |
| -0.29 | COCCNC(=O)C(F)(F)Cn1cnc([N+](=O)[O-])n1 |

Same assay, conditions: pH 7.4

| SMILES | logD |
| --- | --- |
| COCCCNC(=O)Cn1cnc([N+](=O)[O-])n1 | -0.51 |
| COCCNC(=O)Cn1cnc([N+](=O)[O-])n1 | -0.77 |
